Experimental data reported in paper PMC12993615 (The journal of pain, 2024).

Test system: CCK1, CCK2, δ (DOP), cathepsin G
Assay: Subsequent functional assessment of secondary pharmacology hits
Type: biochemical
From the text: Findings were considered significant if ≥50% inhibition of ligand binding or ≥50% stimulation/inhibition were shown in biochemical assays. Those receptors with values ≥50% were further evaluated for binding and functional half-maximal inhibitory concentrations (IC50).

COc1ccccc1[C@@H]1[C@H](C(=O)O)[C@@H](c2ccccc2OC)[C@H]1C(=O)OC1Cc2ccccc2C1 [ART26.12, (+)–3-Indan-2-yloxycarbonyl-2,4-bis(2-methoxyphenyl)cyclobutanecarboxylic acid]
functional assessment at the 4 off-targets: not physiologically relevant
